Results from patent publication US20240131198A1, “RATIOMETRIC BIOSENSOR TATTOOS AND USE THEREOF FOR REAL TIME MEASUREMENTS” (priority 2022, published 2024).

Tests used:
rat skin = assay: Delivery of Cy5-PEG/Cy3-PEG microneedle tattoo to the shaved skin of living rats; type: in vivo; details: MN delivery, fluorescence stereomicroscopy several hours after application
[1] = 50 μM/500 μM of FeSO4:H2O2, 10 μM dye
[2] = tested on: inflammatory filaggrin-deficient (FLG-) skin model; assay: H-Cy5-PEG/Cy7.5-PEG microneedle tattoo in human-based atopic skin model; type: cell-based; details: human-based atopic model of skin inflammation, 20 minutes
Description: To provide the proof of concept for our approach and to validate the potential use of a medical tattoo in a biological system, the sensing properties of the generated MNs were tested in human-based inflammatory skin model that closely emulates characteristics of atopic skin in vitro^[76] and has been previously verified for the presence of disease-relevant ROS.^[77] This model has been extensively characterized in previous work showing excellent correlation with atopic skin in vivo.^[76,78,79] The skin model is based on a filaggrin knockdown, as filaggrin mutations are a major pre-disposing factor for AD.^[80] […] Cy7.5 was selected based on its structural similarity to Cy5 and other cyanines, displaying similar physicochemical properties and allowing PEGylation in the same manner as Cy5, as well as its NIR fluorescence (λex=788 nm; λem=808 nm), optimal for visibility in the skin. […]
The MNs rapidly dissolved within 2 minutes, after which the backing layer was carefully removed. The fluorescence intensities of the sensor and reference dye in the skin models were determined using an IVIS Lumina II imaging system (Perkin Elmer) at 0, 5, 15 and 20 mins after MN application. […] The fluorescence signal for each model was assessed by selecting a region of interest (ROI) and by the signal-to-noise ratio (Cy5 ROI/Cy7.5 ROI).

[3] = Reoxidation of H-Cy5-PEG/Cy7.5-PEG microneedle tattoo in excised porcine skin; details: H2O2 (100 mM) or Fenton's reagent (40 μM/400 μM), portable fluorescence reader
Description: Microneedle tattoos containing both the sensor and reference dye were delivered ex vivo to excised porcine skin that had been treated with either distilled water (control), or a source of ROS—either H2O2 (100 mM) or Fenton's reagent (40 μM/400 μM).
Excised porcine skin was obtained and shaved using a manual blade razor to remove any hair. The skin was permeabilized using a 1.0 mm dermaroller (DermaRollerSystem.com, Markham, ON), 200 μL of either distilled H2O, 100 mM H2O2, or Fenton's Reagent (40 μM FeSO4/400 μM H2O2) was added and allowed to soak into the skin for 20 minutes, after which any excess was removed with a paper towel. […] After removal of the MN backing layer, the fluorescence of the application site was measured with the portable fluorescence reader, using both the Cy5 and Cy7.5 filters (Cy5: λex=638 nm, λem=668-702 nm; Cy7.5: λex=782 nm, λem=810-840 nm). For each MN application, 3 measurements were recorded at each wavelength.

UV-induced dermal ROS = assay: In vivo sensing of UV irradiation-induced ROS in rat skin; parameters: species or system Sprague-Dawley rats; details: 30 minutes after application, t=0 h and t=24 h after irradiation
Description: Male Sprague-Dawley rats (Charles River, St-Constant, QC) with weight ranging from 300-350 g at delivery were used for this study. Following arrival in the animal facility, all animals were subjected to a general health evaluation. An acclimation period of 5 days was allowed before the beginning of the study. Each animal cage was equipped with a manual water distribution system. A standard certified commercial rodent diet was provided ad libitum. Tap water was provided ad libitum at all times. Rats dorsal skin was shaved and depilated under isoflurane-induced anesthesia using an electric razor and depilating cream (Nair, Church & Dwight) the day before experimentation. Rats were extensively rinsed to prevent burning with residual depilating agent. For irradiation, animals were anesthetized with isoflurane and placed under the UV irradiating lamp (Daavlin 24″ research unit×305/350-6/6) equipped with a UV power meter to manually validate constant dosimetry. Irradiated animal received 700 mJ·cm^2 of UVB. […] Three MN arrays were applied at the same time on different sites of the dorsal skin. MNs were removed, and the application sites were scanned for fluorescence using the portable fluorescence reader. On the first day, sites were read after 0.5, 1, 4, and 6 h. On the second day, new MNs were applied and read immediately or 6 h after application. […]

Row | Compound | diffusion in the skin (rat skin) | signal retained when exposed to ROS [1] | Cy7.5-PEG fluorescence intensity over time [2] | fluorescence at Cy7.5-PEG wavelengths in the presence of ROS [3] | Cy7.5-PEG fluorescence intensity after application in vivo (UV-induced dermal ROS)
1 | CN1/C(=C/C=C/C2=[N+](CCCCCC(=O)O)c3ccccc3C2(C)C)C(C)(C)c2ccccc21 [Cy3, Cyanine-3] | minimal diffusion | 40% |  |  | 
2 | CN1/C(=C/C=C/C=C/C2=[N+](CCCCCC(=O)O)c3ccccc3C2(C)C)C(C)(C)c2ccccc21 [Cy5, Cyanine-5] | minimal diffusion |  |  |  | 
3 | Cyanine-7.5-PEG [Cy7.5-PEG] |  |  | did not decrease | unaffected | no significant decrease
